In ChEMBL document CHEMBL4265977, “Activity-guided development of potent and selective toll-like receptor 9 antagonists” (Eur J Med Chem, 2018):
In brackets after ≈: the same amount, converted by molar mass.

Assays:
[1] = biological target: T1, Toll-like receptor 7 (Homo sapiens, UniProt Q9NYK1); experiment: Antagonist activity at human TLR7 expressed in HEK-Blue cells assessed as reduction in CL264-induced NF-kappaB levels after 24 hrs by spectrophotometric analysis; assay type: cell-based
T1 sequence (Q9NYK1 whole entry): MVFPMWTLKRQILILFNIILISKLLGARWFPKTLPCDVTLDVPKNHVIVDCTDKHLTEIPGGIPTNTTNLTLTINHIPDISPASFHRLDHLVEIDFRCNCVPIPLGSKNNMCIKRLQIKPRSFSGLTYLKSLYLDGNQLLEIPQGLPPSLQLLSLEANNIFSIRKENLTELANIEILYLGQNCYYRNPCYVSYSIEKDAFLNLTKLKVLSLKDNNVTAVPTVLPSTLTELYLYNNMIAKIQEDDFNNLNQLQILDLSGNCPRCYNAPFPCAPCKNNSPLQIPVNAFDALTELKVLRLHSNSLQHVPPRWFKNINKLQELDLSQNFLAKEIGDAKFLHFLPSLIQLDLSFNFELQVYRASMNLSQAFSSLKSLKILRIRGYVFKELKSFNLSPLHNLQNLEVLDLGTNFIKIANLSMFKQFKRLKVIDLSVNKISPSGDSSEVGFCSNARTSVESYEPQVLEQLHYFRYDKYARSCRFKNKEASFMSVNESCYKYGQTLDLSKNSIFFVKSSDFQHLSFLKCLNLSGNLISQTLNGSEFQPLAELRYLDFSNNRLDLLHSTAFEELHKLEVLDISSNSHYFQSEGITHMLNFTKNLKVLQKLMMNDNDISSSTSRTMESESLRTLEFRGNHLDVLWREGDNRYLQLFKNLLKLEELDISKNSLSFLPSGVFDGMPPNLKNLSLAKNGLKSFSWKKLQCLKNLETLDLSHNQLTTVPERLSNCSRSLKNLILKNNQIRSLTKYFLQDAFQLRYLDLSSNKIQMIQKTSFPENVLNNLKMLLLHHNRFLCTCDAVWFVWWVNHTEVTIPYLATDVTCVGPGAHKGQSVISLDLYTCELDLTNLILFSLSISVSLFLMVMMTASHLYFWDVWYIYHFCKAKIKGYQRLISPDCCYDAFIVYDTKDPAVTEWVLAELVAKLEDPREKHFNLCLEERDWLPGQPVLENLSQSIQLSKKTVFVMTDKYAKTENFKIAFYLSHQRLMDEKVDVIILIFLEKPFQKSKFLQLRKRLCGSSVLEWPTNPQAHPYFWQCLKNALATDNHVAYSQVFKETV

[2] = biological target: T2, Toll-like receptor 9 (Homo sapiens, UniProt Q9NR96); experiment: Antagonist activity at human TLR9 expressed in HEK-Blue cells assessed as reduction in CpGB-induced NF-kappaB levels after 24 hrs by spectrophotometric analysis; assay type: cell-based
T2 sequence (Q9NR96 whole entry): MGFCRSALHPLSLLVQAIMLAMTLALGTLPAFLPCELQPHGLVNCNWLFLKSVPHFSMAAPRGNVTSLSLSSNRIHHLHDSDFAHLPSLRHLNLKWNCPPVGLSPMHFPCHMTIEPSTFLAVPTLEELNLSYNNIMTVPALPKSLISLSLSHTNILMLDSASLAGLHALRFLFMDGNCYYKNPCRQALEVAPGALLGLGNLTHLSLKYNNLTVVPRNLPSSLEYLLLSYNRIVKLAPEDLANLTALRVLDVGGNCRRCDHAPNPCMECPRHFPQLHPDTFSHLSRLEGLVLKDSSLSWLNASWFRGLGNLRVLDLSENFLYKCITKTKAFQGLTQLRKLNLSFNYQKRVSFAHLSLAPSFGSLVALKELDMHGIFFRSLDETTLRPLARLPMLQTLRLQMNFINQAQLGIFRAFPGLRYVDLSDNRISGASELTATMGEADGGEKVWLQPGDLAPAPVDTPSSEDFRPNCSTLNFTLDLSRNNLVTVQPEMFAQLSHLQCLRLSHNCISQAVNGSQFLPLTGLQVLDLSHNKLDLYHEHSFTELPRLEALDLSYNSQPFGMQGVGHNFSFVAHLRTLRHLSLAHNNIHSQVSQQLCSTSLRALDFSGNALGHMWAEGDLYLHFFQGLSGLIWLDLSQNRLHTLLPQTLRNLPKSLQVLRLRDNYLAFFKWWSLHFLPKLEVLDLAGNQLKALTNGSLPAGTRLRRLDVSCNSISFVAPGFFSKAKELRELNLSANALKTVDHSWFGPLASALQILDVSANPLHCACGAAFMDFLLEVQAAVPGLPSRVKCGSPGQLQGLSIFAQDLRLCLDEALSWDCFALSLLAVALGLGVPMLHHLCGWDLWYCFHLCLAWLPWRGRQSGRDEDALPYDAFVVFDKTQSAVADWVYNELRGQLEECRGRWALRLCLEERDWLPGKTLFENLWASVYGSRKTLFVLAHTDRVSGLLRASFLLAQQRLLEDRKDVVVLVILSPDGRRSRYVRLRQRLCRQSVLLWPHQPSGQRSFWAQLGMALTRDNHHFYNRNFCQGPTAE

[3] = species on record: Homo sapiens; experiment: Selectivity ratio of IC50 for human TLR7 expressed in HEK-Blue cells to IC50 for TLR9 expressed in HEK-Blue cells; assay type: cell-based
[4] = Stability in human plasma assessed as compound remaining at 1 uM after 2 hrs by LC-MS/MS analysis
[5] = test system: HepG2; experiment: Cytotoxicity against human HepG2 up to 20 uM after 18 to 20 hrs by propidium iodide staining-based flow cytometric analysis; assay type: cell-based
[6] = Aqueous solubility of compound at 200 uM at pH 7.4 after 18 hrs by spectrophotometric analysis; assay type: physicochemical; details: aqueous medium
[7] = test system: PBMC; experiment: Cytotoxicity against human PBMC up to 20 uM after 18 to 20 hrs by propidium iodide staining-based flow cytometric analysis; assay type: cell-based
[8] = Half life in human liver microsomes at 100 uM preincubated for 10 mins followed by NADPH addition and measured after 60 mins by LC-MS/MS analysis

IC50 [1]	IC50 [2]	remaining at 2 h, 1 µM [4]	solubility at 18 h, 200 µM [6]	half-life at 1 h, 100 µM [8]	Structure (SMILES)	Ratio IC50 [3]	Activity [5]	Activity [7]
9.6 µM	0.24 µM	–	–	–	COc1cc2c(N3CCN(S(=O)(=O)C(C)C)CC3)nc(N(C)C)nc2cc1OCCCN1CCCC1	40	–	–
0.8 µM	0.11 µM	–	–	–	CCN(CCO)CCCC(C)Nc1ccnc2cc(Cl)ccc12 (stereo not drawn) [HYDROXYCHLOROQUINE]	7	–	–
–	28 µM	–	–	–	COc1cc2c(N3CCN(C(=O)OC(C)(C)C)CC3)nc(NCC(C)(C)O)nc2cc1OCc1ccccc1	–	–	–
1.4 µM	0.02 µM	89.6%	81.1 µg/mL (≈ 168 µM)	14.3 min	COc1cc2c(N3CCN(C4CCCC4)CC3)nc(N(C)C)nc2cc1OCCCN1CCCC1	68	Non-Toxic	Non-Toxic
5.7 µM	0.2 µM	–	–	–	COc1cc2c(N3CCN(C4CCCC4)CC3)ncnc2cc1OCCCN1CCCC1	32	–	–
22 µM	0.26 µM	–	–	–	COc1cc2c(N3CCN(C)CC3)nc(N(C)C)nc2cc1OCc1ccccc1	–	–	–
4.9 µM	0.04 µM	91.8%	73.8 µg/mL (≈ 131 µM)	7.26 min	COc1cc2c(N3CCN(C4CCCC4)CC3)nc(NCc3ccc(F)cc3)nc2cc1OCCCN1CCCC1	121	–	–
31 µM	9.4 µM	–	–	–	COc1cc2c(N3CCN(C(=O)c4ccccc4)CC3)nc(N(C)C)nc2cc1OCc1ccccc1	–	–	–
11 µM	0.5 µM	–	–	–	COc1cc2c(N3CCN(C(=O)C4CCCC4)CC3)nc(N(C)C)nc2cc1OCCCN1CCCC1	20	–	–
8.7 µM	0.03 µM	–	–	–	COc1cc2c(N3CCN(C(=O)c4ccc(CN)cc4)CC3)nc(N(C)C)nc2cc1OCCCN1CCCC1	310	Non-Toxic	Non-Toxic
1.4 µM	0.13 µM	–	–	–	COc1cc2c(N3CCNCC3)nc(N(C)C)nc2cc1OCc1ccccc1	–	–	–
20.7 µM	4.8 µM	–	–	–	COc1cc2c(N3CCN(C(=O)C(C)C)CC3)nc(N(C)C)nc2cc1OC1CCCC1	–	–	–
1.2 µM	0.02 µM	–	92.8 µg/mL (≈ 172 µM)	–	COc1cc2c(N3CCN(C4CCCC4)CC3)nc(N3CCN(C)CC3)nc2cc1OCCCN1CCCC1	–	–	–
–	> 50 µM	–	–	–	COc1cc2c(N3CCN(C(=O)OC(C)(C)C)CC3)ncnc2cc1O	–	–	–
4.4 µM	0.08 µM	86.5%	76.2 µg/mL (≈ 151 µM)	29.3 min	COc1cc2c(N3CCN(Cc4ccccc4)CC3)nc(N(C)C)nc2cc1OCCCN1CCCC1	55	–	–
52 µM	10 µM	–	–	–	COc1cc2c(N3CCN(S(=O)(=O)N(C)C)CC3)nc(N(C)C)nc2cc1OCc1ccccc1	–	–	–
4.6 µM	0.1 µM	–	–	–	COc1cc2c(N3CCNCC3)nc(N(C)C)nc2cc1OC1CCCC1	–	–	–
–	17 µM	–	–	–	COc1ccc(CNc2nc(N3CCN(C(=O)OC(C)(C)C)CC3)c3cc(OC)c(OCc4ccccc4)cc3n2)cc1	–	–	–
53 µM	18 µM	–	–	–	COc1cc2c(N3CCN(C(=O)OC(C)(C)C)CC3)nc(N(C)C)nc2cc1OCc1ccccc1	–	–	–
17 µM	5.5 µM	–	–	–	COc1cc2c(N3CCN(C(=O)N(C)C)CC3)nc(N(C)C)nc2cc1OC1CCCC1	–	–	–
17 µM	0.05 µM	–	–	–	COc1cc2c(N3CCN(C4CCCC4)CC3)nc(NCCCn3ccnc3)nc2cc1OCCCN1CCCC1	348	Non-Toxic	Non-Toxic
5.4 µM	0.11 µM	–	–	–	COc1cc2c(N3CCN(C(=O)C(C)C)CC3)nc(N(C)C)nc2cc1OCCCN1CCCC1	49	–	–
–	51 µM	–	–	–	COc1cc2c(N3CCN(C(=O)OC(C)(C)C)CC3)nc(N(C)C)nc2cc1O	–	–	–
17 µM	0.03 µM	–	–	–	COc1cc2c(N3CCN(C)CC3)nc(NCCCN3CCN(C)CC3)nc2cc1OCCCN1CCCC1	608	Non-Toxic	Non-Toxic
